We go through 4 molecules from the kinase profiling compilation of Christmann-Franck et al. (2016).

Holding throughout (experiment): radiometric filter-binding kinase assay, Kinaseprofiler
One experiment has as its target PLK3 (human) (UniProt Q9H4B4). Particulars: compound 10.0 µM; ATP 70 µM.
The subject of experiment [1] is IRAK4 (human), Q9NWZ3 [A81V]. The settings on record: ATP 200 µM.
The target of another experiment is NUAK1 (human) (UniProt O60285). The settings on record: ATP 45 µM.
The target of another experiment is EPHB1 (human) (UniProt P54762). Particulars: compound 10.0 µM; ATP 200 µM.
For the next experiment, the target named is EPHA8 (human) (UniProt P29322). The settings on record: compound 1.0 µM; ATP 200 µM.
In a further experiment the target is MTOR FKBP1A (human) (UniProt P42345+P62942). The settings on record: compound 10.0 µM; ATP 45 µM.
Experiment [2] relates to BRSK2 (human), Q8IWQ3 [S251I]. Particulars: ATP 70 µM.
Sequence of BRSK2 (human), Q8IWQ3 [S251I] (Q8IWQ3 whole entry, looked up, stated change not applied): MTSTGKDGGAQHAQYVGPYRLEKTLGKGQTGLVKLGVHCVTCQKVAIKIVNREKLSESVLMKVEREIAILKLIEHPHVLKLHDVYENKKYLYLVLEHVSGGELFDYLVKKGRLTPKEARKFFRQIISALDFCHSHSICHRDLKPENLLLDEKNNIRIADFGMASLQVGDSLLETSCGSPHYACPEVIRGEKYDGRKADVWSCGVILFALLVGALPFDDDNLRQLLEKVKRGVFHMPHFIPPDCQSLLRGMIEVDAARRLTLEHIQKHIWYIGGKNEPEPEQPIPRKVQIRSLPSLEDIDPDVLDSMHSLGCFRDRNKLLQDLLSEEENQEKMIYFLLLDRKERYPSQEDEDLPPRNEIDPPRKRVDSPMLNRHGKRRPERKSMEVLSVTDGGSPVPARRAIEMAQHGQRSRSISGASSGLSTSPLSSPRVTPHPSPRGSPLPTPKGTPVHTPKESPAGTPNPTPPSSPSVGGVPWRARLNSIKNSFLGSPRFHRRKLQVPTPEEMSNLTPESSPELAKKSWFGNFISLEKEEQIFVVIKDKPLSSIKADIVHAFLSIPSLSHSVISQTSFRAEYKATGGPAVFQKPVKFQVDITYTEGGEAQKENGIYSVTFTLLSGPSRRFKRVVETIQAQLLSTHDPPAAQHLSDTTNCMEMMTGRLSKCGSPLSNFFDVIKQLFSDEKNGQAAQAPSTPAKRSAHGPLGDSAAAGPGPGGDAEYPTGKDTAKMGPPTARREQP
The target of a further experiment is SRPK1 (human) (UniProt Q96SB4). Particulars: compound 10.0 µM; ATP 10 µM.
The next experiment concerns the target SRPK3 (human) (UniProt Q9UPE1). The settings on record: compound 10.0 µM; ATP 15 µM.
A further experiment concerns the target FYN (human) (UniProt P06241). The settings on record: compound 1.0 µM; ATP 70 µM.
Another experiment has as its target PRKG1 (human) (UniProt Q13976). Particulars: compound 1.0 µM; ATP 90 µM.
In a further experiment the target is PRKACA (human) (UniProt P17612). The settings on record: compound 1.0 µM; ATP 10 µM.
The next experiment deals with ULK3 (human) (UniProt Q6PHR2). The settings on record: compound 10.0 µM; ATP 10 µM.
The target of the next experiment is PASK (human) (UniProt Q96RG2). The settings on record: compound 10.0 µM; ATP 15 µM.
The target in another experiment is MELK (human) (UniProt Q14680). Particulars: compound 1.0 µM; ATP 45 µM.
The target of the next experiment is STK17A (human) (UniProt Q9UEE5). Particulars: compound 10.0 µM; ATP 10 µM.
For a further experiment, the target named is RPS6KA4 KD1 KD2 (human) (UniProt O75676). Particulars: ATP 45 µM.
Sequence of RPS6KA4 KD1 KD2 (human) (O75676 whole entry, looked up): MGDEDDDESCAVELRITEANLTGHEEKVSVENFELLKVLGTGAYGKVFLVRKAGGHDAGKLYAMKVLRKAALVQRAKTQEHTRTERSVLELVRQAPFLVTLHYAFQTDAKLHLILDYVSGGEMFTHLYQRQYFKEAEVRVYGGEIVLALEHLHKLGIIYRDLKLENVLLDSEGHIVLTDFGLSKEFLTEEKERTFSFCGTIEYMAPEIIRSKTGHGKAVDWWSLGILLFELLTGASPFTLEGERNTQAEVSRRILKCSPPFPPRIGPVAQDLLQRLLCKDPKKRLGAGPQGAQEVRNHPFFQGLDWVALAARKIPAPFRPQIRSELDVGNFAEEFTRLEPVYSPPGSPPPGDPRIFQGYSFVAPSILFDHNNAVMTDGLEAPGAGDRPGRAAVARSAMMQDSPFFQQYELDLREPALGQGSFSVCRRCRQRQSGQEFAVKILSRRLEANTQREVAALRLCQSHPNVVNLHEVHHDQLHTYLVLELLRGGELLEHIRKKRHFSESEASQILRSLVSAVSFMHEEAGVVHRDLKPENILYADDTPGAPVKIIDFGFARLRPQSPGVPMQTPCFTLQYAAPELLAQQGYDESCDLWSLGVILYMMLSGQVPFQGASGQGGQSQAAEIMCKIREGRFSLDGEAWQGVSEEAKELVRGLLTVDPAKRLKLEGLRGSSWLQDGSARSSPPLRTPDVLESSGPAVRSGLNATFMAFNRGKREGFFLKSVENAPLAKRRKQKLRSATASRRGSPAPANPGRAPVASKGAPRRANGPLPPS
The next experiment deals with IRAK1 (human) (UniProt P51617). Particulars: compound 10.0 µM; ATP 45 µM.
For the next experiment, the target named is TXK (human) (UniProt P42681). Particulars: compound 1.0 µM; ATP 200 µM.
The target in the next experiment is NLK (human) (UniProt Q9UBE8). The settings on record: compound 1.0 µM; ATP 200 µM.
A further experiment has as its target PTK2B (human) (UniProt Q14289). Particulars: compound 10.0 µM; ATP 90 µM.
The target in the next experiment is MAPK3 (human) (UniProt P27361). Particulars: compound 1.0 µM; ATP 70 µM.
Experiment [3] addresses CSNK2A1 CSNK2B CSNK2A2 (human) (UniProt P19784+P68400+P67870). The settings on record: compound 10.0 µM; ATP 15 µM.
A further experiment concerns the target MAP2K1 (human) (UniProt Q02750). Particulars: compound 1.0 µM; ATP 10 µM.
Another experiment relates to CSNK1D (rat). The settings on record: compound 10.0 µM; accession and sequence are those of the human protein.
The next experiment concerns the target HIPK3 (human) (UniProt Q9H422). The settings on record: ATP 15 µM.
The target in another experiment is WNK2 (human) (UniProt Q9Y3S1). Particulars: compound 10.0 µM; ATP 200 µM.
In a further experiment the target is PAK7 (human) (UniProt Q9P286). Particulars: compound 10.0 µM; ATP 15 µM.
The target in the next experiment is SRC (human) (UniProt P12931). Particulars: compound 10.0 µM; ATP 200 µM.
A further experiment addresses FGR (human) (UniProt P09769). Particulars: compound 1.0 µM; ATP 45 µM.
The next experiment concerns the target STK24 (human) (UniProt Q9Y6E0). Particulars: compound 1.0 µM; ATP 15 µM.
The target in a further experiment is MAPKAPK3 (human) (UniProt Q16644). Particulars: compound 10.0 µM; ATP 90 µM.
The next experiment has as its target TLK2 (human) (UniProt Q86UE8). Particulars: ATP 10 µM.
Another experiment addresses FLT3 (human) (UniProt P36888). Particulars: ATP 200 µM.
The target of another experiment is NTRK2 (human) (UniProt Q16620). The settings on record: ATP 90 µM.
The target of another experiment is CHEK1 (human) (UniProt O14757). The settings on record: compound 10.0 µM; ATP 90 µM.
The target of the next experiment is STK4 (human) (UniProt Q13043). The settings on record: compound 1.0 µM; ATP 90 µM.
For a further experiment, the target named is INSR (human) (UniProt P06213). The settings on record: compound 1.0 µM; ATP 200 µM.
A further experiment deals with CSNK1G1 (human) (UniProt Q9HCP0). The settings on record: compound 10.0 µM; ATP 15 µM.
For a further experiment, the target named is FER (human) (UniProt P16591). Particulars: compound 10.0 µM; ATP 70 µM.
Experiment [4] concerns AXL (human), P30530 [Q764R]. Particulars: ATP 90 µM.
Sequence of AXL (human), P30530 [Q764R] (P30530 whole entry Q764R, looked up): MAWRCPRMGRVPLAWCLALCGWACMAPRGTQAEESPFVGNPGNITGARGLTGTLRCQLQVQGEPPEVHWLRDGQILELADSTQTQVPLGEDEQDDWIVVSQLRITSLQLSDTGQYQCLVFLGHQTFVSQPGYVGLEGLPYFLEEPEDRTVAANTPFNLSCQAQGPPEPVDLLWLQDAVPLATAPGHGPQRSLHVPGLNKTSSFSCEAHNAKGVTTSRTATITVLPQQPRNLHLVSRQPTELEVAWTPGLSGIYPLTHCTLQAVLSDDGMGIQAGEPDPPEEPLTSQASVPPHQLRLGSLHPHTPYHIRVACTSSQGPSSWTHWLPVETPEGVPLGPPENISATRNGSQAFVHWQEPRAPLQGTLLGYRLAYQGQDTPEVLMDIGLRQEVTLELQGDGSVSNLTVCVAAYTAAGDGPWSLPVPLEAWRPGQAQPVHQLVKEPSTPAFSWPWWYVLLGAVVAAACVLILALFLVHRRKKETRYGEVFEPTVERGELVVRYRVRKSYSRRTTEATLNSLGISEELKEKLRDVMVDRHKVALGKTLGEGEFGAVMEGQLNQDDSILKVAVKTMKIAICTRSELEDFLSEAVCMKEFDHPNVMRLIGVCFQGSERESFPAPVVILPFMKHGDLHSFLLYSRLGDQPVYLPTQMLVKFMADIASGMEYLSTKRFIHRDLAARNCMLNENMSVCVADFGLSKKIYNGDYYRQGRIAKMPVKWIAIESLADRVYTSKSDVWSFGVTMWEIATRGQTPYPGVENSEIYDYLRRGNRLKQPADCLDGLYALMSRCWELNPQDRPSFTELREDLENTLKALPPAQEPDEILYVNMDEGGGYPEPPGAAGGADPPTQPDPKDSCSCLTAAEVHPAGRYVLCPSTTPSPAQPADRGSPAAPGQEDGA
A further experiment addresses CAMK2G (human) (UniProt Q13555). The settings on record: compound 10.0 µM; ATP 10 µM.
The next experiment deals with NTRK1 (human) (UniProt P04629). The settings on record: compound 1.0 µM; ATP 120 µM.
The target in another experiment is KDR (human) (UniProt P35968). The settings on record: compound 10.0 µM; ATP 90 µM.
The target in the next experiment is CDC42BPA (human) (UniProt Q5VT25). The settings on record: compound 10.0 µM; ATP 45 µM.
Experiment [5] has as its target JAK2 JH1 catalytic (human) (UniProt O60674). Particulars: compound 1.0 µM; ATP 45 µM.
For another experiment, the target named is PAK4 (human) (UniProt O96013). The settings on record: compound 10.0 µM; ATP 10 µM.
In the next experiment the target is PIM1 (human) (UniProt P11309). The settings on record: compound 10.0 µM; ATP 90 µM.
The target in another experiment is EPHA3 (human) (UniProt P29320). Particulars: compound 1.0 µM; ATP 120 µM.
In another experiment the target is AURKB (human) (UniProt Q96GD4). The settings on record: compound 10.0 µM; ATP 10 µM.
The next experiment addresses RPS6KA3 KD1 KD2 (human) (UniProt P51812). The settings on record: compound 1.0 µM; ATP 10 µM.
Another experiment has as its target TAOK1 (human) (UniProt Q7L7X3). Particulars: compound 1.0 µM; ATP 10 µM.
The next experiment concerns the target EPHA1 (human) (UniProt P21709). The settings on record: compound 1.0 µM; ATP 45 µM.
Another experiment has as its target RPS6KA5 KD1 KD2 (human) (UniProt O75582). The settings on record: compound 1.0 µM; ATP 90 µM.
The target in another experiment is MARK2 (human) (UniProt Q7KZI7). Particulars: compound 1.0 µM; ATP 15 µM.
A further experiment addresses TNK2 (human) (UniProt Q07912). Particulars: compound 1.0 µM; ATP 70 µM.
Experiment [6] has as its system SGK1 (human), O00141 [S422D]. Particulars: ATP 90 µM.
Experiment [7] relates to RPS6KB1 (human), P23443 [T412E]. The settings on record: ATP 15 µM.
Sequence of RPS6KB1 (human), P23443 [T412E] (P23443 whole entry T412E, looked up): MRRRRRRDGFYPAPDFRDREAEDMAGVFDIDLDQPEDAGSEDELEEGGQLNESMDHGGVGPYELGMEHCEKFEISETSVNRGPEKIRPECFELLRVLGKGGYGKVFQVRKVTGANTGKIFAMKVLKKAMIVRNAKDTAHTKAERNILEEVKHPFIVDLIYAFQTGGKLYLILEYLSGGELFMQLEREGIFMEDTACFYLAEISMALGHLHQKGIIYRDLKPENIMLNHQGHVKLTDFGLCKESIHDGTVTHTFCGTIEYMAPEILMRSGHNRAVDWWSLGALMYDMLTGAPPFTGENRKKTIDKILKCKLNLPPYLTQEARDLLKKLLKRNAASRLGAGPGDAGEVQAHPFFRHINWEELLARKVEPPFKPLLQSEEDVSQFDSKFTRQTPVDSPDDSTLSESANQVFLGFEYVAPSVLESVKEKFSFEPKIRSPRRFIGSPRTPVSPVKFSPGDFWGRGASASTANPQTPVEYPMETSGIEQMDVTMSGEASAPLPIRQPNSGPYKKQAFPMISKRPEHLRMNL

Sequence of IRAK4 (human), Q9NWZ3 [A81V] (Q9NWZ3 whole entry, looked up, stated change not applied): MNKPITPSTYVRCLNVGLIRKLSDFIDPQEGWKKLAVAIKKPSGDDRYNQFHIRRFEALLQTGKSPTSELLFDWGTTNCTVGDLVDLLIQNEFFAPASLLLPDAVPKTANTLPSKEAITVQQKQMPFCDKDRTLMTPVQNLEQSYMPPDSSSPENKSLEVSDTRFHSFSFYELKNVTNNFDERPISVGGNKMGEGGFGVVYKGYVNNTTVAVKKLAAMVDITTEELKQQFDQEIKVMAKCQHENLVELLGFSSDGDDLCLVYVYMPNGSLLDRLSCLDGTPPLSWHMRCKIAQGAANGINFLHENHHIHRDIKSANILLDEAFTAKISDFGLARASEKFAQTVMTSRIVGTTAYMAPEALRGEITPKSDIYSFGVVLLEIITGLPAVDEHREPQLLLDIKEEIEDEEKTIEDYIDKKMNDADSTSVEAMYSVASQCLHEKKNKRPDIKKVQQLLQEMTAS
Sequence of HIPK3 (human) (Q9H422 whole entry, looked up): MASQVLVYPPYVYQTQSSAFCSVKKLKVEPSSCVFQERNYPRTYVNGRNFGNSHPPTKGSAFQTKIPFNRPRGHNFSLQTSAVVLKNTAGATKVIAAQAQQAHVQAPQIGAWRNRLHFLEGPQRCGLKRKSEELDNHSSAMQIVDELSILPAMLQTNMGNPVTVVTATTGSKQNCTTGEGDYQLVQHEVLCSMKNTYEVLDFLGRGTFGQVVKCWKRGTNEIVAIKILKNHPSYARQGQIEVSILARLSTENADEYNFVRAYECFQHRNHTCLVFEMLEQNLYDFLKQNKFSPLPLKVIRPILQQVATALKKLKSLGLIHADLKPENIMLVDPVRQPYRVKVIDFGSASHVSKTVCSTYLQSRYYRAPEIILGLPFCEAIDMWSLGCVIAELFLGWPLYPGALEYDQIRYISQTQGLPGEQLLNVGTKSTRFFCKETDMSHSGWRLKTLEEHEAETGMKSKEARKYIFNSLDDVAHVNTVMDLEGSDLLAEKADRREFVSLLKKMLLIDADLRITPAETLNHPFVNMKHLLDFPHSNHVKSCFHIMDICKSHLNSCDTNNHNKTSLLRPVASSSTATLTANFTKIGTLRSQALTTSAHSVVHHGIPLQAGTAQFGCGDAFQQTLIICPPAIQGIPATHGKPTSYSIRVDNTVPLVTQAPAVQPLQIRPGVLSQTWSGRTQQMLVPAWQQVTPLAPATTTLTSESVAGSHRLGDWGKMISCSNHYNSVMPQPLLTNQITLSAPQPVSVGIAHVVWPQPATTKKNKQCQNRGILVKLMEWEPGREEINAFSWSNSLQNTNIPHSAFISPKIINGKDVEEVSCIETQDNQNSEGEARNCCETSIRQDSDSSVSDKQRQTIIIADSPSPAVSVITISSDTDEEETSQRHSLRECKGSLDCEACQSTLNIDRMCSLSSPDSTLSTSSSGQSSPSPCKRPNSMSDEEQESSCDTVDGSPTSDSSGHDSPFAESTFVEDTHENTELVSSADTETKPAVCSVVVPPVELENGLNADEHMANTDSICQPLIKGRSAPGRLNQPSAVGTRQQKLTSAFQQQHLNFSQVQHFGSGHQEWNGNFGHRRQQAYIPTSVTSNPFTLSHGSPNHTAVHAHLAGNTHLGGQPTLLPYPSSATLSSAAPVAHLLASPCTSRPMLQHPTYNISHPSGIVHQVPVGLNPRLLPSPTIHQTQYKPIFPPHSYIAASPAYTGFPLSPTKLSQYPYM
Sequence of SGK1 (human), O00141 [S422D] (O00141 whole entry S422D, looked up): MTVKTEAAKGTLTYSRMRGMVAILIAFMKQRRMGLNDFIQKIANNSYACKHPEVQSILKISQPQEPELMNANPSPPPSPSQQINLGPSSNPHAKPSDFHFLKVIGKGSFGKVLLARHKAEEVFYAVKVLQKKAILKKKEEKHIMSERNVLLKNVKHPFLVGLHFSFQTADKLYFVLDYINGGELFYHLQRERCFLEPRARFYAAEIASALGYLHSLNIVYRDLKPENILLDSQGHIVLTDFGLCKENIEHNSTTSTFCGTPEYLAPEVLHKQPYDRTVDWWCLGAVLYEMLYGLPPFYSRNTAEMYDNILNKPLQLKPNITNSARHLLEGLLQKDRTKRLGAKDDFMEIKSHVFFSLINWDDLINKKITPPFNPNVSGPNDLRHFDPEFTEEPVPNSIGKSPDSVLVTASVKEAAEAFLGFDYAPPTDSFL

In the case of `CN[C@@H]1C[C@H]2O[C@@](C)([C@@H]1OC)n1c3ccccc3c3c4c(c5c6ccccc6n2c5c31)C(=O)NC4`, the residual activity on PLK3 (human) stood at 43%; in experiment [1] (compound 10.0 µM) it was 0%; on NUAK1 (human) (compound 1.0 µM), 0%; on NUAK1 (human) (compound 10.0 µM) it was 0%; at EPHB1 (human), 0%; on EPHA8 (human), 26%. Besides, the residual activity on MTOR FKBP1A (human) is 78%; in experiment [2] (compound 10.0 µM) it was 0%; at SRPK1 (human) it was -4%; on SRPK3 (human), 51%; on FYN (human), 0%; at PRKG1 (human), 0%. Besides, the residual activity on PRKACA (human), on ULK3 (human), on PASK (human), at MELK (human), on STK17A (human) and at RPS6KA4 KD1 KD2 (human) (compound 1.0 µM) was 0% throughout. Further, the residual activity at RPS6KA4 KD1 KD2 (human) (compound 10.0 µM) is 0%; at IRAK1 (human) it was 0%; on TXK (human), 24%; on NLK (human) it was 26%; on PTK2B (human) it was 0%; on MAPK3 (human), 62%. For the same molecule, the residual activity in experiment [3] was 95%; at MAP2K1 (human), 0%; in the experiment on CSNK1D (rat) it was 52%; on HIPK3 (human) (compound 1.0 µM), 82%; on HIPK3 (human) (compound 10.0 µM), 34%; at WNK2 (human) it was 37%. Also, the residual activity at PAK7 (human) came to 0%; at SRC (human) it was 0%; on FGR (human) it was 0%; at STK24 (human) it was 0%; on MAPKAPK3 (human), 43%; at TLK2 (human) (compound 1.0 µM) it was 0%. The residual activity at TLK2 (human) (compound 10.0 µM), on FLT3 (human) (compound 1.0 µM), at FLT3 (human) (compound 10.0 µM), on NTRK2 (human) (compound 1.0 µM), on NTRK2 (human) (compound 10.0 µM) and at CHEK1 (human) was 0% in each case. For the same molecule, the residual activity on STK4 (human) turned out to be 0%; on INSR (human), 26%; at CSNK1G1 (human) it was 54%; at FER (human), 0%.

In the case of `COC(=O)[C@]1(O)C[C@@H]2O[C@@]1(C)n1c3ccccc3c3c4c(c5c6ccccc6n2c5c31)C(=O)NC4`, the residual activity in experiment [1] (compound 1.0 µM) was -2%; in experiment [1] (compound 10.0 µM), 0%; in experiment [2] (compound 10.0 µM), 0%; in experiment [4] (compound 10.0 µM) it was -3%.

As to `O=C(Nc1cccc(Nc2nccc(Nc3cccc(C(F)(F)F)c3)n2)c1)C1CC1`, the residual activity on CAMK2G (human) was 21%; on NTRK1 (human), 21%; at KDR (human) it was 24%; on CDC42BPA (human) it was 147%; in experiment [5], 17%; at PAK4 (human), 28%. The residual activity at PIM1 (human) is 28%; on EPHA3 (human) it was 100%; on AURKB (human), -1%; at RPS6KA3 KD1 KD2 (human) it was 17%; on TAOK1 (human), 100%; on EPHA1 (human), 24%. The residual activity at RPS6KA5 KD1 KD2 (human) stood at 100%; on MARK2 (human), 100%; at TNK2 (human), 24%.

Consider `O=C1c2ccccc2-c2n[nH]c3cccc1c23`, for which the residual activity was determined as 36% in [1] (compound 1.0 µM); 11% in [1] (compound 10.0 µM); 64% in [2] (compound 1.0 µM); 9% in [2] (compound 10.0 µM); 60% in experiment [6] (compound 1.0 µM); 24% in experiment [6] (compound 10.0 µM). Besides, the residual activity in experiment [7] (compound 1.0 µM) is 55%; in experiment [7] (compound 10.0 µM), 14%; in experiment [4] (compound 1.0 µM) it was 50%; in experiment [4] (compound 10.0 µM), 17%.

The residual activity is the signal under treatment as a percentage of the control signal.
